Test results published in patent US10799501B2, “Combination of an inhibitor of PARP with an inhibitor of GSK-3 or DOT1L” (King's College London, priority 2015, dated 2020).

How the values were obtained:
[1] = test system: MLL-AF9 leukemic cells (Hoxa9−/− background); assay: C57Bl/6 mice transplanted with Hoxa9−/− MLL-AF9 leukemic cells, Olaparib treatment; type: in vivo, mouse; conditions: Olaparib 50 mg/kg daily
Method: For Hoxa9 KO studies, we intravenously injected […] MLL-AF9 leukemic cells (wild type or Hoxa9−/− background) together with 2×10^5 bone marrow rescue cells into lethally irradiated C57Bl/6 mice (2 doses of irradiation 550 RADS each) for disease development. For drug studies, the control cohort received vehicle (10% 2-Hydroxpropyl-beta-cyclodextrin, HBC, Sigma-Aldrich) and the PARPi treatment group received daily Olaparib 50 mg/kg in 10% HBC for two-four weeks.

Kasumi (AML1-ETO) = assay: In vitro PARPi treatment of human leukemic cell line Kasumi; type: cell-based
Method: NB4-LR2 and THP1 cell lines (kindly provided by Dr Arthur Zelent and Professor Mel Greaves respectively) were cultured in RPMI (Invitrogen) supplemented with 10% selected FBS (R10), 2 mM L-Glutamine. Kasumi cell line (kindly provided by Dr Olaf Heidenreich) was cultured in RPMI-Hepes modified (Sigma) supplemented with 20% selected FBS and 2 mM L-[…]). Cell lines were validated by qPCR for their respective oncogenes. NIH3T3 and GP2 cell line was cultured in DMEM (Invitrogen) supplemented with 10% selected FBS and 2 mM L-Glutamine. Human primary AML cells were cultured in IMEM (Invitrogen) supplemented with […], 2 mM L-Glutamine, 10 ng/mL each of human cytokines, IL3, IL6, SCF, FLT3 ligand, and TPO. Cells were kept at 37° C. and 5% CO2. Use of human primary cells was approved by King's College London committee and consents of the patients were obtained. […] Colonies were scored 6-7 days after plating. […] Samples were then washed in PBS analysed at the FACS LSRII (BD Biosciences Pharmingen) with FACS Diva. […] Cells were counted in at least 5 fields for each slide, for a total of over 100 cells. The percentage of senescent cells was calculated by the percentage of the number of blue cell in the field.

THP1 (MLL-AF9) = assay: In vitro drug treatment of human leukemic cell line THP1; type: cell-based
Method: NB4-LR2 and THP1 cell lines (kindly provided by Dr Arthur Zelent and Professor Mel Greaves respectively) were cultured in RPMI (Invitrogen) supplemented with 10% selected FBS (R10), 2 mM L-Glutamine. Kasumi cell line (kindly provided by Dr Olaf Heidenreich) was cultured in RPMI-Hepes modified (Sigma) supplemented with 20% selected FBS and 2 mM L-[…]). Cell lines were validated by qPCR for their respective oncogenes. NIH3T3 and GP2 cell line was cultured in DMEM (Invitrogen) supplemented with 10% selected FBS and 2 mM L-Glutamine. Human primary AML cells were cultured in IMEM (Invitrogen) supplemented with […], 2 mM L-Glutamine, 10 ng/mL each of human cytokines, IL3, IL6, SCF, FLT3 ligand, and TPO. Cells were kept at 37° C. and 5% CO2. Use of human primary cells was approved by King's College London committee and consents of the patients were obtained. […] Colonies were scored 6-7 days after plating. For other in vitro studies, mouse leukemic cells and primary AML cell lines were subjected to continuously Olaparib (1 μM) or LiCl (8 mM) treatment in liquid culture for whole duration as indicated in the figures or figure legends. For human leukemic cell lines, experiments were performed as described above with 5 μM Olaparib. For each assay 1×10^5 cells were collected, washed in PBS and re-suspended in Annexin V binding solution (25 mM Hepes, 140 mM KCl, 2.5 mM CaCl2 pH 7.2). After centrifugation at 500 g for five minutes the cells were incubated with the Annexin V Binding solution containing 0.25 ug/ml mouse anti Annexin V-FITC antibody (Biolegend 640906) and 1 ug/ml propidium iodide in the dark for 30 minutes at 4° C. Samples were then washed in PBS analysed at the FACS LSRII (BD Biosciences Pharmingen) with FACS Diva. Cells were cytospun onto a glass slide at 400 g for 5 minutes and then fixed for 10 minutes with 2% formaldehyde/0.2% glutaraldehyde (Sigma Aldrich). […] Cells were counted in at least 5 fields for each slide, for a total of over 100 cells. The percentage of senescent cells was calculated by the percentage of the number of blue cell in the field.

[2] = C57Bl6 mice succumbed with MLL-AF9-Hoxa9 KO driven leukemia
[3] = methylcellulose 7 days, 5 μM Olaparib

O=C(c1cc(Cc2n[nH]c(=O)c3ccccc23)ccc1F)N1CCN(C(=O)C2CC2)CC1 [Olaparib, 4-[(3-[(4-cyclopropylcarbonyl)piperazin-4-yl]carbonyl)-4-fluorophenyl]methyl(2H)-phthalazin-1-one]
BM Engraftment (%) [1, 2]: 82.06 ± 18.95%
Disease Latency (days; median) [1, 2]: 67 days
Hematopoietic Liver Engraftment (%) [1, 2]: 62.18 ± 38.26%
Hematopoietic Spleen Engraftment (%) [1, 2]: 65.4 ± 33.45%
Liver [1, 2]: 1.696 ± 0.1262 g
Spleen [1, 2]: 0.4337 ± 0.1559 g
disease latency ([1]; Hoxa9 deficient MLL-AF9 leukemic cells): significantly delayed the disease latency
senescence and apoptosis (Kasumi (AML1-ETO); PARPi 72 hrs / 4 days): effectively induce senescence and apoptosis
colony forming ability (Kasumi (AML1-ETO); [3]): reduced the colony forming ability
growth (relative proliferation) and differentiation (THP1 (MLL-AF9); counted on day 5 by trypan blue exclusion): ineffective
colony forming ability (THP1 (MLL-AF9); [3]): did not affect
